Experimental data published in US20070128217A1 (priority 2003, published 2007).

Tests used:
[1] = test system: rabbit serum obtained by immunizing a rabbit with the SARS-CoV strain Frankfurt 1; assay type: binding; design: Binding of a rabbit serum to linear peptides / Binding of a rabbit serum to looped peptides / Rabbit serum linear peptides / Rabbit serum looped peptides / Binding of a rabbit serum to linear peptides of protein N of SARS-CoV Urbani (Rabbit serum linear peptides) / Binding of a rabbit serum to looped/cyclic peptides of protein N of SARS-CoV Urbani (Rabbit serum looped peptides): unit not given here
[2] = test system: recombinant human anti-SARS-CoV antibody 03-018; assay type: binding; design: Binding of antibody 03-018 to linear peptides of the N protein of SARS-CoV Urbani / Binding of antibody 03-018 to looped/cyclic peptides of the N protein of SARS-CoV Urbani: unit not given here
[3] = test system: control sera (pooled serum of ten healthy LUMC hospital workers; commercial negative donor pooled serum from the Dutch bloodbank); assay type: binding, human; design: Binding of Control serum LUMC to linear peptides / Binding of Control serum Blood-bank to linear peptides / Binding of Control serum LUMC to looped peptides / Binding of Control Serum Blood-Bank to Looped peptides / Binding of Control serum LUMC to linear peptides of the protein M of SARS-CoV Urbani / Binding of Control serum Blood-bank to linear peptides of the protein M of SARS-CoV Urbani / Binding of Control serum LUMC to looped peptides of the protein M of SARS-CoV Urbani / Binding of Control Serum Blood-Bank to Looped peptides of the protein M of SARS-CoV Urbani: unit not given here
[4] = test system: antibodies in sera from SARS patients (sera 1a, 1b, 2, 6, 37, 62, London, SARS-yellow, SARS-green); assay type: binding, human; design: Binding of serum 6 to linear peptides of protein X1 of SARS-CoV Urbani / Binding of serum 37 to linear peptides of protein X1 of SARS-CoV Urbani / Binding of serum 6 to looped/cyclic peptide (PEPSCAN-ELISA) / Binding of serum 37 to looped/cyclic peptide (PEPSCAN-ELISA) / Binding of serum 37 to looped/cyclic peptides of protein X1 of SARS-CoV Urbani / Binding of serum 6 to linear peptides of protein X2 / Binding of serum 37 to linear peptides of protein X2 / Binding of serum 37 to looped/cyclic peptides of protein X2 of SARS-CoV Urbani / Binding of serum 6 to linear peptides of protein M of SARS-CoV Urbani / Binding of serum 37 to linear peptides of protein M of SARS-CoV Urbani / Binding of serum 6 to looped/cyclic peptides of protein M of SARS-CoV Urbani / Binding of serum 37 to looped/cyclic peptides of protein M of SARS-CoV Urbani / Binding of serum 6 to linear peptides of protein X3 of SARS-CoV Urbani / Binding of serum 37 to linear peptides of protein X3 of SARS-CoV Urbani / Binding of serum 37 to looped/cyclic peptides of protein X3 of SARS-CoV Urbani / Binding of serum 6 to linear peptides of protein X4 of SARS-CoV Urbani / Binding of serum 37 to linear peptides of protein X4 of SARS-CoV Urbani / Binding of serum 37 to looped/cyclic peptides of protein X4 of SARS-CoV Urbani / Binding of serum 6 to linear peptides of protein X5 of SARS-CoV Urbani / Binding of serum 37 to linear peptides of protein X5 of SARS-CoV Urbani / Binding of serum 37 to looped/cyclic peptides of protein X5 of SARS-CoV Urbani / Binding of serum 6 to linear peptides of protein N of SARS-CoV Urbani / Binding of serum 37 to linear peptides of protein N of SARS-CoV Urbani / Binding of serum 6 to linear peptide (PEPSCAN-ELISA) / Binding of serum 1a to looped/cyclic peptides of protein N of SARS-CoV Urbani / Binding of serum 1b to looped/cyclic peptides of protein N of SARS-CoV Urbani / Binding of serum 2 to looped/cyclic peptides of protein N of SARS-CoV Urbani / Binding of serum 6 to looped/cyclic peptides of protein N of SARS-CoV Urbani / Binding of serum 37 to looped/cyclic peptides of protein N of SARS-CoV Urbani / Binding of serum 62 to looped/cyclic peptides of protein N of SARS-CoV Urbani / Binding of serum London to looped/cyclic peptides of protein N of SARS-CoV Urbani / Binding of serum SARS-green to looped/cyclic peptides of protein N of SARS-CoV Urbani: unit not given here

Sequence	Binding of a rabbit serum to linear peptides of protein N of SARS-CoV Urbani (Rabbit serum linear peptides) [1]	Binding of a rabbit serum to looped/cyclic peptides of protein N of SARS-CoV Urbani (Rabbit serum looped peptides) [1]	Binding of antibody 03-018 to linear peptides of the N protein of SARS-CoV Urbani [2]	Binding of antibody 03-018 to looped/cyclic peptides of the N protein of SARS-CoV Urbani [2]	Binding of Control Serum Blood-Bank to Looped peptides [3]	Binding of Control serum Blood-bank to linear peptides [3]	Binding of Control serum LUMC to linear peptides [3]	Binding of Control serum LUMC to looped peptides [3]	Binding of serum 1a to linear peptides of protein N of SARS-CoV Urbani [4]	Binding of serum 1a to looped/cyclic peptides of protein N of SARS-CoV Urbani [4]	Binding of serum 1b to linear peptides of protein N of SARS-CoV Urbani [4]	Binding of serum 1b to looped/cyclic peptides of protein N of SARS-CoV Urbani [4]	Binding of serum 2 to linear peptides of protein N of SARS-CoV Urbani [4]	Binding of serum 2 to looped/cyclic peptides of protein N of SARS-CoV Urbani [4]	Binding of serum 6 to looped/cyclic peptides of protein N of SARS-CoV Urbani [4]	Binding of serum 37 to looped/cyclic peptides of protein N of SARS-CoV Urbani [4]	Binding of serum 62 to looped/cyclic peptides of protein N of SARS-CoV Urbani [4]	Binding of serum London to looped/cyclic peptides of protein N of SARS-CoV Urbani [4]	Binding of serum SARS-green to looped/cyclic peptides of protein N of SARS-CoV Urbani [4]	Binding of serum SARS-yellow to looped/cyclic peptides of protein N of SARS-CoV Urbani [4]	also measured
NKEGIVWVATEGALN	0.1	0.2	0.1	0.2	0.6	0.7	0.7	0.6	0.3	0.3	0.1	0.2	0.2	0.4	0.2	0.6	0.4	0.3	0.3	0.4	Binding of serum 6 to linear peptides of protein N of SARS-CoV Urbani [4]: 0.2; Binding of serum 37 to linear peptides of protein N of SARS-CoV Urbani [4]: 0.7; Binding of serum 62 to linear peptides of protein N of SARS-CoV Urbani [4]: 0.6; Binding of serum London to linear peptides of protein N of SARS-CoV Urbani [4]: 0.4; Binding of serum SARS-green to linear peptides of protein N of SARS-CoV Urbani [4]: 0.4; Binding of serum SARS-yellow to linear peptides of protein N of SARS-CoV Urbani [4]: 0.9
NKHIDAYKTFPPTEP	0.0	0.3	0.1	0.2	–	–	–	–	0.2	0.3	0.1	0.1	0.1	0.2	0.1	0.4	0.3	0.3	0.3	0.2	Control Serum Blood-Bank Looped peptides [3]: 0.5; Control serum Blood-bank linear peptides [3]: 0.6; Control serum LUMC linear peptides [3]: 0.5; Control serum LUMC looped peptides [3]: 0.4; Binding of serum 6 to linear peptides of protein N of SARS-CoV Urbani [4]: 0.2; Binding of serum 37 to linear peptides of protein N of SARS-CoV Urbani [4]: 0.6; Binding of serum 62 to linear peptides of protein N of SARS-CoV Urbani [4]: 0.5; Binding of serum London to linear peptides of protein N of SARS-CoV Urbani [4]: 0.5; Binding of serum SARS-green to linear peptides of protein N of SARS-CoV Urbani [4]: 0.3; Binding of serum SARS-yellow to linear peptides of protein N of SARS-CoV Urbani [4]: 0.6
NQLESKVSGKGQQQQ	0.2	0.5	0.1	0.3	0.7	0.8	0.9	0.7	–	0.4	–	0.2	–	0.5	0.3	0.6	0.5	0.5	0.3	0.6	Binding of serum 1a to linear peptide (PEPSCAN-ELISA) [4]: 0.3; Binding of serum 1b to linear peptide (PEPSCAN-ELISA) [4]: 0.2; Binding of serum 2 to linear peptide (PEPSCAN-ELISA) [4]: 0.3; Binding of serum 6 to linear peptide (PEPSCAN-ELISA) [4]: 0.2; Binding of serum 37 to linear peptide (PEPSCAN-ELISA) [4]: 0.7; Binding of serum 62 to linear peptide (PEPSCAN-ELISA) [4]: 0.8; Binding of serum London to linear peptide (PEPSCAN-ELISA) [4]: 0.6; Binding of serum SARS-green to linear peptide (PEPSCAN-ELISA) [4]: 0.5; Binding of serum SARS-yellow to linear peptide (PEPSCAN-ELISA) [4]: 0.7
NQNGGRNGARPKQRR	0.5	1.1	0.2	0.2	0.6	0.7	0.8	0.5	0.2	0.2	0.1	0.1	0.3	0.2	0.2	0.4	0.3	0.3	0.2	0.3	Binding of serum 6 to linear peptides of protein N of SARS-CoV Urbani [4]: 0.3; Binding of serum 37 to linear peptides of protein N of SARS-CoV Urbani [4]: 0.8; Binding of serum 62 to linear peptides of protein N of SARS-CoV Urbani [4]: 0.7; Binding of serum London to linear peptides of protein N of SARS-CoV Urbani [4]: 0.5; Binding of serum SARS-green to linear peptides of protein N of SARS-CoV Urbani [4]: 0.5; Binding of serum SARS-yellow to linear peptides of protein N of SARS-CoV Urbani [4]: 0.6
